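Following 48 hours of exposure in 96-well plates, responses at five concentrations were used to interpolate endpoints linearly. At the GI50, growth is halved. Definition used: TGI = concentration required for complete inhibition of growth.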
What was measured:
Experiment in all cases: NCI anticancer screen, dose series, 48 h
PC-3 prostate = tested on: PC-3 prostate
SF-539 CNS = tested on: SF-539 CNS
DU-145 prostate = tested on: DU-145 prostate
SK-MEL-2 melanoma = tested on: SK-MEL-2 melanoma
786-0 renal = tested on: 786-0 renal
NCI-H522 lung = tested on: NCI-H522 lung
NCI-H23 lung = tested on: NCI-H23 lung
UACC-257 melanoma = tested on: UACC-257 melanoma
HT29 colon = tested on: HT29 colon
RPMI-8226 leukemia = tested on: RPMI-8226 leukemia
SF-268 CNS = tested on: SF-268 CNS
UACC-62 melanoma = tested on: UACC-62 melanoma
K-562 leukemia = tested on: K-562 leukemia
SNB-19 CNS = tested on: SNB-19 CNS
BT-549 breast = tested on: BT-549 breast
KM12 colon = tested on: KM12 colon
OVCAR-8 ovarian = tested on: OVCAR-8 ovarian
NCI-H226 lung = tested on: NCI-H226 lung
HS 578T breast = tested on: HS 578T breast
HCC-2998 colon = tested on: HCC-2998 colon
M14 melanoma = tested on: M14 melanoma
SK-MEL-5 melanoma = tested on: SK-MEL-5 melanoma
SK-OV-3 ovarian = tested on: SK-OV-3 ovarian
SK-MEL-28 melanoma = tested on: SK-MEL-28 melanoma
OVCAR-4 ovarian = tested on: OVCAR-4 ovarian
OVCAR-3 ovarian = tested on: OVCAR-3 ovarian
SN12C renal = tested on: SN12C renal
HCT-116 colon = tested on: HCT-116 colon
HOP-92 NSCLC = tested on: HOP-92 NSCLC
MOLT-4 leukemia = tested on: MOLT-4 leukemia
COLO 205 colon = tested on: COLO 205 colon
A549 NSCLC = tested on: A549 NSCLC
SW-620 colon = tested on: SW-620 colon
ACHN renal = tested on: ACHN renal
RXF 393 renal = tested on: RXF 393 renal
CAKI-1 renal = tested on: CAKI-1 renal
U251 CNS = tested on: U251 CNS
CCRF-CEM leukemia = tested on: CCRF-CEM leukemia
NCI-H460 lung = tested on: NCI-H460 lung
HCT-15 colon = tested on: HCT-15 colon
TK-10 renal = tested on: TK-10 renal
MDA-MB-231 breast = tested on: MDA-MB-231 breast
MCF7 breast = tested on: MCF7 breast
LOX IMVI melanoma = tested on: LOX IMVI melanoma
SNB-75 CNS = tested on: SNB-75 CNS
HL-60(TB) leukemia = tested on: HL-60(TB) leukemia
MALME-3M melanoma = tested on: MALME-3M melanoma
OVCAR-5 ovarian = tested on: OVCAR-5 ovarian
SF-295 CNS = tested on: SF-295 CNS
T-47D breast = tested on: T-47D breast
IGROV1 ovarian = tested on: IGROV1 ovarian
MDA-MB-435 = tested on: MDA-MB-435
SR leukemia = tested on: SR leukemia
HOP-62 NSCLC = tested on: HOP-62 NSCLC

Nc1c(C(=O)Nc2ccccn2)sc2nc3c(cc12)CCCCC3
GI50 (PC-3 prostate): 2.59 µM | TGI (PC-3 prostate): > 50 µM | GI50 (SF-539 CNS): 1.39 µM | TGI (SF-539 CNS): > 50 µM | GI50 (DU-145 prostate): 1.88 µM | TGI (DU-145 prostate): > 50 µM | GI50 (SK-MEL-2 melanoma): 2.08 µM | TGI (SK-MEL-2 melanoma): > 50 µM | GI50 (786-0 renal): 1.78 µM | TGI (786-0 renal): > 50 µM | GI50 (NCI-H522 lung): 2.11 µM | TGI (NCI-H522 lung): > 50 µM | GI50 (NCI-H23 lung): 2.19 µM | TGI (NCI-H23 lung): > 50 µM | GI50 (UACC-257 melanoma): > 50 µM | TGI (UACC-257 melanoma): > 50 µM | GI50 (HT29 colon): 1.75 µM | TGI (HT29 colon): > 50 µM | GI50 (RPMI-8226 leukemia): 1.98 µM | TGI (RPMI-8226 leukemia): > 50 µM | GI50 (SF-268 CNS): 4.89 µM | TGI (SF-268 CNS): > 50 µM | GI50 (UACC-62 melanoma): 3.06 µM | TGI (UACC-62 melanoma): > 50 µM | GI50 (K-562 leukemia): 0.987 µM | TGI (K-562 leukemia): > 50 µM | GI50 (SNB-19 CNS): 2.77 µM | TGI (SNB-19 CNS): > 50 µM | GI50 (BT-549 breast): 2.36 µM | TGI (BT-549 breast): > 50 µM | GI50 (KM12 colon): 1.95 µM | TGI (KM12 colon): > 50 µM | GI50 (OVCAR-8 ovarian): 2.87 µM | TGI (OVCAR-8 ovarian): > 50 µM | GI50 (NCI-H226 lung): 2.6 µM | TGI (NCI-H226 lung): > 50 µM | GI50 (HS 578T breast): 2.74 µM | TGI (HS 578T breast): > 50 µM | GI50 (HCC-2998 colon): 2.37 µM | TGI (HCC-2998 colon): > 50 µM | GI50 (M14 melanoma): 1.26 µM | TGI (M14 melanoma): > 50 µM | GI50 (SK-MEL-5 melanoma): 2.13 µM | TGI (SK-MEL-5 melanoma): > 50 µM | GI50 (SK-OV-3 ovarian): 2.14 µM | TGI (SK-OV-3 ovarian): > 50 µM | GI50 (SK-MEL-28 melanoma): 6.23 µM | TGI (SK-MEL-28 melanoma): > 50 µM | GI50 (OVCAR-4 ovarian): 4.09 µM | TGI (OVCAR-4 ovarian): > 50 µM | GI50 (OVCAR-3 ovarian): 1.63 µM | TGI (OVCAR-3 ovarian): > 50 µM | GI50 (SN12C renal): 3.59 µM | TGI (SN12C renal): > 50 µM | GI50 (HCT-116 colon): 1.77 µM | TGI (HCT-116 colon): > 50 µM | GI50 (HOP-92 NSCLC): 27.9 µM | TGI (HOP-92 NSCLC): > 50 µM | GI50 (MOLT-4 leukemia): 2.32 µM | TGI (MOLT-4 leukemia): > 50 µM | GI50 (COLO 205 colon): 1.42 µM | TGI (COLO 205 colon): > 50 µM | GI50 (A549 NSCLC): 2.47 µM | TGI (A549 NSCLC): > 50 µM | GI50 (SW-620 colon): 3.19 µM | TGI (SW-620 colon): > 50 µM | GI50 (ACHN renal): 2.71 µM | TGI (ACHN renal): > 50 µM | GI50 (RXF 393 renal): 1.4 µM | TGI (RXF 393 renal): 4.86 µM | GI50 (CAKI-1 renal): 3.51 µM | TGI (CAKI-1 renal): > 50 µM | GI50 (U251 CNS): 2.64 µM | TGI (U251 CNS): > 50 µM | GI50 (CCRF-CEM leukemia): 1.91 µM | TGI (CCRF-CEM leukemia): > 50 µM | GI50 (NCI-H460 lung): 1.83 µM | TGI (NCI-H460 lung): > 50 µM | GI50 (HCT-15 colon): 1.38 µM | TGI (HCT-15 colon): > 50 µM | GI50 (TK-10 renal): 4.98 µM | TGI (TK-10 renal): > 50 µM | GI50 (MDA-MB-231 breast): 3.83 µM | TGI (MDA-MB-231 breast): > 50 µM | GI50 (MCF7 breast): 0.851 µM | TGI (MCF7 breast): > 50 µM | GI50 (LOX IMVI melanoma): 9.56 µM | TGI (LOX IMVI melanoma): > 50 µM | GI50 (SNB-75 CNS): 2.35 µM | TGI (SNB-75 CNS): > 50 µM | GI50 (HL-60(TB) leukemia): 1.34 µM | TGI (HL-60(TB) leukemia): > 50 µM | GI50 (MALME-3M melanoma): 34.3 µM | TGI (MALME-3M melanoma): > 50 µM | GI50 (OVCAR-5 ovarian): 3.8 µM | TGI (OVCAR-5 ovarian): > 50 µM | GI50 (SF-295 CNS): 1.56 µM | TGI (SF-295 CNS): > 50 µM | GI50 (T-47D breast): 1.79 µM | TGI (T-47D breast): > 50 µM | GI50 (IGROV1 ovarian): 3.58 µM | TGI (IGROV1 ovarian): > 50 µM | GI50 (MDA-MB-435): 0.25 µM | TGI (MDA-MB-435): > 50 µM | GI50 (SR leukemia): 0.521 µM | TGI (SR leukemia): > 50 µM | GI50 (HOP-62 NSCLC): 3.46 µM | TGI (HOP-62 NSCLC): > 50 µM

— PubChem BioAssay (NCI)
